Source: the METLIN SMRT retention time set (Domingo-Almenara et al. 2019)

Experiment: gradient 5% acetonitrile 3 min, to 50% in 2 min, to 85% in 15 min, held 3 min, 100 µL/min
Details: column: Zorbax Extend-C18 2.1 x 50 mm; eluents: water / acetonitrile, 0.1% formic acid
Summary of the method: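 Each retention time is based on an adduct peak selected computationally and verified by manual inspection. Measurements used HPLC–quadrupole time-of-flight mass spectrometry in positive and negative ionization mode on mixtures of ~100 pure standards. Chromatography ran on a Zorbax Extend-C18 column (2.1 × 50 mm, 1.8 μm) at 100 μL/min with water and acetonitrile, each containing 0.1% formic acid, and dead and dwell volumes of 40 μL and 900 μL.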

SMILES	RP-LC retention time [s]
CC(C)NC(=O)c1ccc(OCC2CCCN(C(=O)c3ccc(F)c(F)c3)C2)cc1 (centres undefined)	869
CC1Oc2ccc(-c3csc(NC(=O)C(C)(C)C)n3)cc2NC1=O (centres undefined)	856
COc1ccc(-c2ccnc3nc(-c4ccccc4OC)nn23)c(F)c1	872
Cc1ccc(C)c(NC(=O)C2CCCN2S(=O)(=O)c2ccc3c(c2)CCCC(=O)N3)c1 (centres undefined)	810
CCN1CCN(c2nc(F)c3c(c2F)S(=O)(=O)CCN3CCOC)CC1	581
CN(CCCNC(=O)C1CCCN(c2ccc(N3CCOCC3)nn2)C1)c1ccccc1 (centres undefined)	570
CCN(CC)S(=O)(=O)c1ccc2c(c1)CC(C(=O)NCCN1CCCCCC1)N2C(C)=O (centres undefined)	631
CC(NC(=O)c1ccco1)c1nc(-c2ccc(N3CCOCC3)cc2)no1 (centres undefined)	757
CNC(=O)N1CCCN(S(C)(=O)=O)C(c2ccccc2)CC(=O)NCC1 (centres undefined)	616
Cc1ccc(-c2nnc(-c3nc(NCCc4cccs4)c4ccccc4n3)o2)cc1	1120
O=C(NCc1ccc2c(c1)OCO2)C1CCCN(C(=O)c2cc(-c3ccccn3)n[nH]2)C1 (centres undefined)	655
COc1cccc(-c2noc(CN3C(=O)COc4ccc(C)cc43)n2)c1OC	981
O=S(=O)(CCOc1ccc(F)cc1)Nc1ccc(N2CCOCC2)cc1	767
Cc1ccc2c(c1)N(S(C)(=O)=O)CCC(C(=O)Nc1cc(Cl)ccc1C)O2 (centres undefined)	919
CCC(=O)N1CCC(COc2ccc(C(=O)NC(C)C)cc2)CC1	719
C[C@H](Cc1ccc(O)c(O)c1)[C@@H](C)Cc1ccc(O)c(O)c1	878
Cc1ccc(NC(=O)C2CCCN(c3nccnc3Sc3ccc(C)cc3)C2)cc1 (centres undefined)	1200
Cc1ccc(N2CCN(Cc3nc(-c4ccc(N5CCOCC5)nc4)no3)CC2)cc1	791
Cc1ccc(N2CCN(C(=O)c3ccc4c(c3)CC(=O)N4C)CC2)cc1	796
COc1cc(OC)cc(-c2nnc(Cc3nc(-c4ccccc4F)no3)o2)c1	907
CCc1ccc(C(C)NC(=O)c2ccc3[nH]cc(C(=O)C(=O)N4CCCCCC4)c3c2)cc1 (centres undefined)	936
CC1CCC2(CC1)N=C(N1CCN(c3ncccn3)CC1)NC(=O)C2C#N (centres undefined)	649

SMILES	RP-LC retention time [s]
Cc1cc(C)cc(N2C(=O)CN(C3CCCC3)[C@H]3CS(=O)(=O)C[C@H]32)c1	790
c1ccc(CNc2nc(C3CC3)nc3c2CCC3)nc1	540
CCOc1ccc(C2Cn3nnc(-c4nc(-c5ccsc5)no4)c3CO2)cc1 (centres undefined)	1150
Cc1cc(C(=O)NC(C)C)nn1C	628
COc1cccc(C(O)CN2CCN(c3ccccc3OC)CC2)c1 (centres undefined)	659
Cc1ccc(OCC(=O)N2CCN(c3nc(CN4CCOCC4)cs3)CC2)cc1	640
COc1ccc(NC2=NS(=O)(=O)C(c3ccccc3)=C2C)cc1OC	802
CCCCCOC(=O)c1ccc(Nc2nc(C(=O)OCC)nc3ccccc23)cc1	1160
Cc1ccccc1-n1ccn(Cc2nc(-c3ccc(C(C)(C)C)cc3)no2)c(=O)c1=O	1050
CCOc1ccc(-c2noc(Cn3ccn4nc(-c5ccc(Cl)cc5)cc4c3=O)n2)cc1OC	1130
O=C(c1ccco1)N1CCN(c2ccc3cc(S(=O)(=O)N4CCCC4)ccc3n2)CC1	704
CCOc1ccccc1N1CCN(C(=O)c2csc(C(=O)NC3CC3)n2)CC1	790
O=C(c1ccc(N2CCN(c3ncccn3)CC2)nn1)N1CCc2ccccc21	784
O=C(NCCOc1ccc2c(c1)OCO2)C1CCCC1	741
COc1ccc(NC(=O)N2CCc3cn(CC(C)C)c4cccc(c34)C2)cc1	1030
CCN(Cc1ccccc1)C(=O)Cn1c(N2CCCC2)nc(C)cc1=O	660
O=c1cc(CN(Cc2ccccc2)Cc2ccccc2)nc2ccccn12	671
O=C(CN1CCN(C(=O)Nc2ccc(Cl)cc2)CC1=O)N1CCN(c2ccccn2)CC1	592
CCN1CCN(c2ccc(NC(=O)c3ccc(F)c(Cl)c3)cn2)C1=O	811
CCC(C)C(=O)N1CCCN(C2=NS(=O)(=O)C(c3ccc(F)cc3)=C2C)CC1 (centres undefined)	795
CC(C)(C)CN(C(=O)c1ccc(F)cc1)c1ccncc1	640
COc1ccc(-c2noc(-c3nc(-c4ccccn4)no3)n2)cc1	966
